Data on 8 molecules can be found in patent US11834414B2, “1-methyl-4-[(4-phenylphenyl)sulfonylmethyl]cyclohexyanol and 1-methyl-4-[[4-(2-pyridyl)phenyl]sulfonylmethyl]cyclohexanol compounds and their therapeutic use” (Modern Biosciences Limited, priority 2018, dated 2023).

Converted amounts (≈) assume the structure as drawn. “Also recorded” adds a separate entry of the source. Where two headings read alike, the source gives them in different places.

Series [1] in a line: Human hepatocyte stability. It counts as in vitro ADME. The settings on record: human, pooled human hepatocytes, human hepatocytes, 1 μM, 60 minute incubation; for hepatocyte CLint at 1 μM: read-out: Human Clint (uL/min/million cells); for half-life at 1 μM: read-out: Human t1/2. As for the experimental part: (§1) Metabolic stability of test compounds was measured by determination of the rate of disappearance of the compound when incubated in the presence of rat or human hepatocytes, a primary source of the most important enzymes (cytochrome P450s) involved in drug metabolism. Study of drug stability in the presence of primary hepatocytes is accepted as a valuable model permitting rapid prediction of in vivo drug stability.
(§2) Rat or human hepatocytes were obtained from a commercial source and viability was assessed using a trypan blue solution prior to use. Test compounds (final concentration 1 μM, 0.1% DMSO, 0.9% acetonitrile) or a marker (diclofenac or diltiazem, final assay concentration 1 μM, 0.1% DMSO, 0.9% acetonitrile) were incubated with pooled hepatocytes for a 60 minute period and samples removed at up to 6 time points and analysed by LC-MS/MS for the presence/amount of test compounds.
(§3) Each compound was incubated for 0, 5, 15, 30, 45, or 60 minutes. The reactions were stopped by the addition of methanol containing an internal standard (1 μM Tolbutamide) at the appropriate time points, mixed and placed at −20° C. for ≥1 hour to quench and allow protein to precipitate. All samples were centrifuged (2500×g, 20 minutes, 4° C.). The aliquots were analysed using LC-MS/MS. Reactions were performed in duplicate at 37° C.
(§4) Data were processed, and the results plotted as In(concentration) vs. time. The elimination rate constant (slope of the regression line, k) was calculated using the following formula, where C(t) is the concentration at time t and C(0) is the starting concentration:
(§5) The half-life (t1/2) was calculated using the following formula: […]
(§6) The intrinsic clearance (CIint) was calculated using the following formula, where [cell] is the hepatocyte concentration in the assay: […]

The subject of series [2] is human hepatocytes. Briefly: Human hepatocyte stability. It counts as in vitro ADME. The settings on record: hepatocyte stability, compared to the reference compounds. Here is the method:
as §1, §2, §3, §4, §5, §6

For series [3], the system named is Thp1 human monocytic cells. Briefly: Thp1 Monocyte ATP Production Assay. Format: cell-based. As to conditions: for IC50: Homo sapiens, THP-1, 24 h, Thp1 cells, 24 hour incubation, ATPLite, 9-point range 10 μM to 10 nM, mean of 2 independent experiments. As for the experimental part: In vitro potency of test compounds was determined by incubation with Thp1 human monocytic cells and subsequent determination of Adenosine TriPhosphate (ATP) levels using firefly luciferase.
ATP is present in all metabolically active cells. When cells lose integrity, their ability to synthesise ATP is rapidly lost. […] See, e.g., Kang et al., 2015; Jiang et al., 2013. Levels of ATP can be monitored using a system based on firefly (Photinus pyralis) luciferase (see, e.g., Auld et al., 2009) using commercially available kits. A system known as
ATPlite™ was using to measure effects of the test compounds on cellular viability in vitro. This one-step assay system is an adenosine triphosphate (ATP) monitoring system based on the production of light caused by the reaction of ATP from the cells with added luciferase and D-luciferin, as illustrated in the reaction scheme below:
The emitted light is proportional to the ATP concentration.
Thp1 cells were plated at 112500 cells per well in 125 μL RPMI-1640 (no glucose) with 1% FBS in 96-well plates. Test compounds were prepared as 100 mM solutions in DMSO. These stock solutions were diluted in DMSO and then diluted 1000× in culture medium (RPMI) before being added directly to the wells so as to give the desired final compound concentration. After a 24 hour incubation at 37° C./5% CO2, ATPLite™ (Perkin Elmer) was added to each well (1:10 v/v, 10 μL). The plate was then incubated at room temperature for 5 minutes and the emitted light was quantified on Viewlux with a measurement time of 0.3 seconds and binning 4×4.
The average results for each test compound were expressed as a percent (%) of the average control value reflecting cell viability. The average values across the concentrations tested were then plotted and the IC50 for was calculated by fitting the data to a 4-parameter IC50 equation using software from Graf it (Erithacus Software). Each experiment was repeated twice and the data are presented as the mean IC50 from both experiments.
A general note: Cellular ATP, detected with luciferase, serves as a proxy for viable cell number.

The nature of series [4]: Rat hepatocyte stability. As to conditions: rat, pooled rat hepatocytes, 60 minute incubation; for hepatocyte CLint at 1 μM: read-out: Rat Clint (μL/min/million cells); for half-life at 1 μM: read-out: Rat t1/2. Format: in vitro ADME. As for the experimental part: as §1, §2, §3, §4, §5, §6
Series [5] in a line: Aqueous solubility in FaSSIF. Format: physicochemical. As to conditions: kinetic from dmso stock, pH 6.5, three replicates. Here is the method: Aqueous solubility was measured by equilibration of compounds with fasted state simulated intestinal fluid (FaSSIF) and quantified spectrophotometrically.
Preparation of blank FaSSIF: 0.21 g of sodium hydroxide (NaOH) pellets, 1.97 g of dihydrogen sodium phosphate (NaH2PO4.2H2O) and 3.09 g of sodium chloride (NaCl) were dissolved in 400 mL of deionised water. The pH was adjusted to 6.5 using 1 M hydrochloric acid and further deionised water added to a final volume of 500 mL.
Preparation of FaSSIF: 0.056 g of SIF Powder (containing sodium taurocholate and lecithin) (Phares AG) was dissolved in 25 mL of blank FaSSIF and stirred until the powder was completely dissolved. The solution was allowed to stand for 2 hours during which it became opalescent; it was used within 24 hours. The final solution composition was characterised as follows: • Sodium taurocholate: 3 mM • Lecithin: 0.75 mM • Osmolarity: 270±10 mOsmol • pH: 6.5
The optical density was measured at the end of the incubation period for test compounds and a reference used to determine solubility. In brief, two samples were prepared for each determination: a reference sample consisting of a stock solution of test compound in DMSO diluted in system solution (a phosphate free, low absorption buffer) and propanol; and a test sample (prepared in triplicate) consisting of 0.5 mL FaSSIF spiked with test compound at 0.2 mM. Each sample was incubated at room temperature for 16 hours with constant shaking at 250 rpm. At the end of the incubation period, 0.3 mL of each sample was filtered through a pION filter plate (PION, Woburn MA), diluted 1:1 with propanol and scanned using UV spectrophotometry at λmax ([…]) using a Spectra Max Plus—Version 2.1000 (Molecular Devices, Sunnyvale, CA), with pSOL Explorer solubility determination software (pION, Woburn, MA).
FaSSIF solubility was calculated using the following formula:
[formula] • wherein: • “OD” is the optical density; • “Cr” is the concentration of the reference (33.4 μM); and • “molecular weight” is for the test compound (e.g., 381.44 for ABD735).

The target in series [6] is CYP2C19 (Homo sapiens (Human), UniProt P33261). Briefly: Human Cytochrome P450 Inhibition Assay (Bactosomes). It counts as in vitro ADME. As to conditions: recombinant Bactosomes, 10 minutes, 37° C.
In series [7] the target is CYP3A4 (Homo sapiens (Human), UniProt P08684). The series is described as above. It counts as in vitro ADME. The settings on record: recombinant Bactosomes, 10 minutes, 37° C.
Series [8] deals with CYP2D6 (Homo sapiens (Human), UniProt P10635). The description is as above. It counts as in vitro ADME. The settings on record: recombinant Bactosomes, 10 minutes, 37° C.
Series [9] concerns the target CYP2C9 (Homo sapiens (Human), UniProt P11712). The series is described as above. It counts as in vitro ADME. The settings on record: recombinant Bactosomes, 10 minutes, 37° C.
The target of series [10] is T1, CYP1A2 (Homo sapiens (Human), UniProt P05177). The description is as above.
The nature of series [11]: Metabolite identification in rats. Format: in vivo, Han Wistar rats. The settings on record: rat, 1 mg/kg intravenous. As for the experimental part: The formation of metabolites in rats was assessed to determine the propensity of the compounds to form a biaryl metabolite.
The corresponding sulfonamide compounds (for example, reference compound HMC-C-01-A) give rise to a sulphonamide metabolite which is persistent and has a long half-life. In addition, the biaryl sulphonamide metabolite acts as an inducer of metabolism in rats, which may complicate the assessment of toxicity in rodents. Therefore, the lower the propensity to form a biaryl sulphonamide metabolite, the greater the potential suitability of the compound for development for human use.
Plasma samples from Han Wistar rats, aged 8-12 weeks, were collected from animals dosed with test compound. Test compounds at a dose of 1 mg/kg were administered intravenously as a solution in 5% NMP, 5% Solutol HS, and 90% normal saline. Animals were given free access to food throughout the study. Blood samples were taken under light isoflurane anaesthesia at 12 time points following an intravenous dose (0.033, 0.1, 0.167, 0.25, 0.5, 1, 2, 4, 6, 8, 12, and 24 hours). The blood samples were collected from a set of three rats at each time point in labelled micro centrifuge tube containing K2EDTA as anticoagulant. Plasma samples were separated by centrifugation of whole blood.
All samples were processed for analysis by protein precipitation using acetonitrile and analysed with a fit-for-purpose LC-MS/MS method.
At the completion of the study, the results were expressed as detection of the metabolite and time course of formation.

Series [12] concerns the target T1, CYP1A2. As to conditions: recombinant enzyme.

Chain of CYP2D6 (P10635 whole entry): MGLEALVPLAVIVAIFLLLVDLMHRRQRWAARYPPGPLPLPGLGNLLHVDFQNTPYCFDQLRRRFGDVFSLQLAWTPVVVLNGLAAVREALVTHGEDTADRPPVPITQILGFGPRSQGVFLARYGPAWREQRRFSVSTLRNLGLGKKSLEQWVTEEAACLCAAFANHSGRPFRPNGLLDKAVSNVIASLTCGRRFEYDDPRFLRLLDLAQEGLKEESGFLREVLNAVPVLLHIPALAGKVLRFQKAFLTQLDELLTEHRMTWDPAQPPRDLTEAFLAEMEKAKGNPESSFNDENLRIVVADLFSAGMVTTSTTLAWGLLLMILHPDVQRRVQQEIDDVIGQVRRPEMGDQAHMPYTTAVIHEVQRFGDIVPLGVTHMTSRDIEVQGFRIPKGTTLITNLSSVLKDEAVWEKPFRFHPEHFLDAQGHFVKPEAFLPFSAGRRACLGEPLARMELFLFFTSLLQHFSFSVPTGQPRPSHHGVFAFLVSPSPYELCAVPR
Chain of CYP3A4 (P08684 whole entry): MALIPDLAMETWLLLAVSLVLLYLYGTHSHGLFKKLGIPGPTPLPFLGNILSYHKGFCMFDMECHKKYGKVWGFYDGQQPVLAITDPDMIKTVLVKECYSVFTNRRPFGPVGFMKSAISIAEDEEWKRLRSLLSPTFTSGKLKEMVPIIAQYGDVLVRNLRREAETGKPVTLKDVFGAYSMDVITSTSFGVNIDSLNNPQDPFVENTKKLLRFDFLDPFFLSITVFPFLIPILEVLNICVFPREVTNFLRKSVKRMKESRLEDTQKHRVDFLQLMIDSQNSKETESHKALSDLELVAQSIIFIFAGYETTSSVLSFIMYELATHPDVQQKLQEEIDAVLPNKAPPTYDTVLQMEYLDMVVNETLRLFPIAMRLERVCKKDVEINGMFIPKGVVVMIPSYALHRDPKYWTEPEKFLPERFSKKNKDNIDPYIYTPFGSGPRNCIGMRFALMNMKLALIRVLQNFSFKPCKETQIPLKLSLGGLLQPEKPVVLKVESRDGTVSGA
Chain of CYP2C19 (P33261 whole entry): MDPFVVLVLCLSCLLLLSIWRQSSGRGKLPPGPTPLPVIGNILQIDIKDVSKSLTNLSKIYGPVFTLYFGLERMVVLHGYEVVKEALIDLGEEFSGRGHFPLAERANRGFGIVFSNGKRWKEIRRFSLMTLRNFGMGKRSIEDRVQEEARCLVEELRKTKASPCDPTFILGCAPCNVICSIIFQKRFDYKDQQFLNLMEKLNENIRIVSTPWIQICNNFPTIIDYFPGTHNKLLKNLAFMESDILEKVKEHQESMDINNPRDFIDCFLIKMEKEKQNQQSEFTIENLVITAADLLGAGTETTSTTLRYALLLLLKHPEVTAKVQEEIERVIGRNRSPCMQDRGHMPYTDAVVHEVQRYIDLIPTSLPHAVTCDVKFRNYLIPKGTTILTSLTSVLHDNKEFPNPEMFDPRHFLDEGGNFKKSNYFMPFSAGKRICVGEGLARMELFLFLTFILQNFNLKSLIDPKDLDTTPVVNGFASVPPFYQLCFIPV
T1 sequence (P05177 whole entry): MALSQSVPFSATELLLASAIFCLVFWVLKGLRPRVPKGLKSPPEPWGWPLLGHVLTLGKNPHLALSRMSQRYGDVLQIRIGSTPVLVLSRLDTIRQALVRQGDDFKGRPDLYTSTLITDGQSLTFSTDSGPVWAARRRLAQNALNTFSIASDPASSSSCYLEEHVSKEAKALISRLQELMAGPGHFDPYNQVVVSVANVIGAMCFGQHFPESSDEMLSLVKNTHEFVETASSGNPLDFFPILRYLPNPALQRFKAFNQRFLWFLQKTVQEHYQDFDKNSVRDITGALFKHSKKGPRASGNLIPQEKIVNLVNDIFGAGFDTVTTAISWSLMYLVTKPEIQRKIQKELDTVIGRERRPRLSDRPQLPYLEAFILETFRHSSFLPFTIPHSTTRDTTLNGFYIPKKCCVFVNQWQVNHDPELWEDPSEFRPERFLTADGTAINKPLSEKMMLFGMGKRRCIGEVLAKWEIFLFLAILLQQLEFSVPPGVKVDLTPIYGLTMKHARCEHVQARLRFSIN
Chain of CYP2C9 (P11712 whole entry): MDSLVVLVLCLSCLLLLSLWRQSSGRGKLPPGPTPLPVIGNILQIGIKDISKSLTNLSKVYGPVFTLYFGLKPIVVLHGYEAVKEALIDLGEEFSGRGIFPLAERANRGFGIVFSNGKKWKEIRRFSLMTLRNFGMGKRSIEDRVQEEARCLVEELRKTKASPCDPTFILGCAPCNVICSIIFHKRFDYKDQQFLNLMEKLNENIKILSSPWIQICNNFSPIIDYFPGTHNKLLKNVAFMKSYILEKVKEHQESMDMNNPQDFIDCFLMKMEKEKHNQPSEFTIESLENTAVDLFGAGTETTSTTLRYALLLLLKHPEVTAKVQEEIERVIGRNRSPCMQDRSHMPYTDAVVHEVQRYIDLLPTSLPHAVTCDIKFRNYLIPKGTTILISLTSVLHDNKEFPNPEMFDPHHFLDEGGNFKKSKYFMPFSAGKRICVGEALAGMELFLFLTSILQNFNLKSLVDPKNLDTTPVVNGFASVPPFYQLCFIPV

One may read the IC50 as the concentration at which inhibition is half-maximal. As for `C[C@]1(O)CC[C@H](CS(=O)(=O)c2ccc(-c3ncc(F)cc3F)c(F)c2)CC1` [CHMSA-03-B, trans-4-(((4-(3,5-Difluoropyridin-2-yl)-3-fluorophenyl)sulfonyl)methyl)-1-methylcyclohexan-1-ol], in series [1], the hepatocyte CLint at 1 μM was below 3 µL/min/1e6 cells and the half-life at 1 μM is above 7.67 h. In series [2], the “metabolic stability (in words)” value is reported as “exceptionally good stability”. In addition, the 50% inhibitory concentration (IC50) in series [3] stood at 5.4 µM.
What is called solubility is how much of the substance goes into solution per volume. A low value points to little dissolved substance. Regarding `C[C@]1(O)CC[C@@H](CS(=O)(=O)c2ccc(-c3ccc(F)cc3F)cc2)CC1` [CHMSA-04-A, cis-4-(((2′,4′-Difluoro-(1,1′-biphenyl)-4-yl)sulfonyl)methyl)-1-methylcyclohexan-1-ol], in [4], the hepatocyte CLint at 1 μM worked out at 37.4 µL/min/1e6 cells and the half-life at 1 μM came to 0.785 h. In series [1], the hepatocyte CLint at 1 μM was 40.6 µL/min/1e6 cells and the half-life at 1 μM stood at 0.458 h. In addition, in series [3], 0.98 µM corresponded to half-maximal inhibition (IC50). For the same molecule, the solubility at 16 h in [5] is above 70 µg/mL.
In the case of `C[C@]1(O)CC[C@H](CS(=O)(=O)c2ccc(-c3ccc(F)cc3F)cc2)CC1` [CHMSA-04-B, trans-4-(((2′,4′-difluoro-(1,1′-biphenyl)-4-yl)sulfonyl)methyl)-1-methylcyclohexan-1-ol], in series [4], the hepatocyte CLint at 1 μM came to 51.3 µL/min/1e6 cells and the half-life at 1 μM was 0.523 h. In addition, in series [1], the hepatocyte CLint at 1 μM was below 3 µL/min/1e6 cells and the half-life at 1 μM was above 7.67 h. For the same molecule, the IC50 in [3] came to 2.4 µM. The solubility at 16 h in series [5] is 40 µg/mL (≈ 105 µM).
Take `C[C@]1(O)CC[C@@H](CS(=O)(=O)c2ccc(-c3ncc(F)cc3F)cc2C(F)(F)F)CC1` [CHMSA-09-A, cis-4-(((4-(3,5-difluoropyridin-2-yl)-2-(trifluoromethyl)phenyl)sulfonyl)methyl)-1-methylcyclohexan-1-ol]: the concentration for half-maximal inhibition (IC50) was 25 µM in [6]; above 25 µM in series [7]; above 25 µM in [8]; 0.3 µM in series [3]; above 25 µM in series [9]; above 25 µM in series [10]. Further, in [1], the hepatocyte CLint at 1 μM was 12.1 µL/min/1e6 cells. Further, the half-life at 1 μM in series [1] amounted to 1.87 h. Besides, in series [3] (compared to the reference compounds), the “potency in the Thp1 monocytic ATP assay (in words)” value is on record as “excellent potency”.
`C[C@]1(O)CC[C@H](CS(=O)(=O)c2ccc(-c3ccc(Cl)cc3C#N)cc2)CC1` [CHMSA-10-B, 4-Chloro-4′-((trans-4-hydroxy-4-methylcyclohexyl)methanesulfonyl)-(1,1′-biphenyl)-2-carbonitrile]: in series [4], the hepatocyte CLint at 1 μM amounted to 336 µL/min/1e6 cells and the half-life at 1 μM came to 0.08 h. Besides, the “time after administration at which metabolite MET-002 was detected” value in [11] was 0.5 h. In [11] (up to 24 hours), the “formation of biaryl sulphonamide metabolite (MET-001) in plasma” value was “did not produce any biaryl sulphonamide metabolite” and the “formation of biaryl sulphonic acid metabolite (MET-002) in plasma” value was “detected only transiently; also recorded: only transiently detected”. In series [1], the hepatocyte CLint at 1 μM is 5.8 µL/min/1e6 cells and the half-life at 1 μM worked out at 3.25 h. The molecule further showed a half-maximal inhibitory concentration (IC50) in series [3] of 1.96 µM.
For the molecule `C[C@]1(O)CC[C@@H](CS(=O)(=O)c2ccc(-c3ccc(C#N)cc3)c(F)c2)CC1` [CHMSA-12-A, 2′-fluoro-4′-(((cis-4-hydroxy-4-methylcyclohexyl)methyl)sulfonyl)-[1,1′-biphenyl]-4-carbonitrile], in series [1], the hepatocyte CLint at 1 μM is below 3.1 µL/min/1e6 cells and the half-life at 1 μM was above 7.27 h. The “metabolic stability (in words)” value in series [2] is on record as “exceptionally good stability”. For the same molecule, inhibition in series [3] was half-maximal at 1.8 µM (IC50).
For the molecule `C[C@]1(O)CC[C@H](CS(=O)(=O)c2ccc(-c3ccc(C#N)cc3)c(F)c2)CC1` [CHMSA-12-B, 2′-Fluoro-4′-(((trans-4-hydroxy-4-methylcyclohexyl)methyl)sulfonyl)-[1,1′-biphenyl]-4-carbonitrile], in [1], the hepatocyte CLint at 1 μM is below 3.1 µL/min/1e6 cells and the half-life at 1 μM was above 7.36 h. For the same molecule, the “metabolic stability (in words)” value in series [2] is reported as “exceptionally good stability”. The molecule also had a half-maximal inhibitory concentration (IC50) in [3] of 3.2 µM.
Regarding `CC1(O)CCC(NS(=O)(=O)c2ccc(-c3ccc(C#N)cc3Cl)cc2)CC1` (stereo not shown) [HMC-C-09-A, reference compound], the half-inhibitory concentration (IC50) in series [6] is above 50 µM; in series [7], 33 µM; in series [8] it was above 50 µM; in [12], 23 µM; in series [9], 34 µM.
